According to ChEMBL document CHEMBL1777806, “Three new cytotoxic aryltetralin lignans from Sinopodophyllum emodi” (Bioorg Med Chem Lett, 2011):

Columns and labels:
[1] = tested on: HeLa; experiment: Cytotoxicity against human HeLa cells after 72 hrs by MTT assay; format: functional, cell-based
[2] = tested on: KB; experiment: Cytotoxicity against human KB cells after 72 hrs by MTT assay; format: functional, cell-based

SMILES	IC50 [1] [µM]	IC50 [2] [µM]
COc1cc([C@@H]2c3cc4c(cc3[C@@H](O[C@@H]3O[C@H](CO)[C@@H](O)[C@H](O)[C@H]3O)[C@H]3COC(=O)[C@H]23)OCO4)cc(OC)c1O	0.048	< 0.01
COc1cc(-c2c3c(c(O)c4cc5c(cc24)OCO5)COC3=O)cc(OC)c1O	> 100	84.7
COc1cc([C@@H]2c3cc4c(cc3[C@H](O[C@@H]3O[C@H](COC(C)=O)[C@@H](O)[C@H](O)[C@H]3O)[C@H]3COC(=O)[C@H]23)OCO4)cc(OC)c1OC [SINOLIGNAN A]	3.77	8.76
COc1cc([C@@H]2c3cc(O)c(O)cc3[C@H](O)[C@H]3COC(=O)[C@H]23)cc(OC)c1OC [6,7-O,O-DEMETHYLENEPODOPHYLLOTOXIN]	> 100	> 100
COc1cc([C@@H]2c3cc4c(cc3C[C@H]3COC(=O)[C@@H]32)OCO4)cc(OC)c1O[C@@H]1O[C@H](CO)[C@@H](O)[C@H](O)[C@H]1O	0.87	2.09
COc1cc(-c2c3c(c(O)c4cc5c(cc24)OCO5)COC3=O)cc(OC)c1OC [DEHYDROPODOPHYLLOTOXIN]	8.28	9.79
COc1cc([C@@H]2c3cc4c(cc3[C@H](O[C@@H]3O[C@H](CO[C@@H]5O[C@H](CO)[C@@H](O)[C@H](O)[C@H]5O)[C@@H](O)[C@H](O)[C@H]3O)[C@H]3COC(=O)[C@@H]23)OCO4)cc(OC)c1OC	> 100	> 100
COc1cc([C@@H]2c3cc(O)c(O)cc3[C@H](O)[C@H]3COC(=O)[C@H]23)cc(OC)c1O	79.6	> 100
COc1cc([C@@H]2c3cc4c(cc3[C@H](O)[C@H]3COC(=O)[C@H]23)OCO4)cc(OC)c1O	0.08	0.064
COc1cc([C@@H]2c3cc4c(cc3C(=O)[C@@H]3COC(=O)[C@H]23)OCO4)cc(OC)c1OC [ISOPICROPODOPHYLLONE]	32.1	> 100
COc1cc([C@@H]2c3cc4c(cc3[C@H](O[C@@H]3O[C@H](CO[C@@H]5O[C@H](CO)[C@@H](O)[C@H](O)[C@H]5O)[C@@H](O)[C@H](O)[C@H]3O)[C@H]3COC(=O)[C@@H]23)OCO4)cc(OC)c1O [SINOLIGNAN B]	> 100	> 100
COc1cc([C@@H]2c3cc4c(cc3[C@@H](O[C@@H]3O[C@@H]5CO[C@@H](C)O[C@H]5[C@H](O)[C@H]3O)[C@H]3COC(=O)[C@H]23)OCO4)cc(OC)c1O [ETOPOSIDE]	4	10
COc1cc([C@@H]2c3cc4c(cc3C[C@H]3COC(=O)[C@@H]32)OCO4)cc(OC)c1OC [DESOXYPODOPHYLLOTOXIN]	0.0069	0.0089
COc1cc([C@@H]2c3cc4c(cc3[C@H](O[C@@H]3O[C@H](CO)[C@@H](O)[C@H](O)[C@H]3O)[C@H]3COC(=O)[C@H]23)OCO4)cc(OC)c1O	5.33	9.51
COc1cc([C@@H]2c3cc4c(cc3C[C@H]3COC(=O)[C@@H]32)OCO4)cc(OC)c1O [4'-DEMETHYLDEOXYPODOPHYLLOTOXIN]	0.074	0.0078
COc1cc([C@@H]2c3cc4c(cc3[C@H](O[C@@H]3O[C@H](CO)[C@@H](O)[C@H](O)[C@H]3O)[C@H]3COC(=O)[C@H]23)OCO4)cc(OC)c1OC	6.65	9.25
COc1cc([C@@H]2c3cc4c(cc3[C@H](O)[C@H]3COC(=O)[C@H]23)OCO4)cc(OC)c1OC [PODOFILOX]	0.069	0.056
COc1cc([C@@H]2c3cc4c(cc3[C@H](O)[C@H]3COC(=O)[C@H]23)OCO4)cc(OC)c1OC(C)=O	0.076	0.05
